Data reported in ChEMBL document CHEMBL1201862, “PubChem BioAssay data set” (2004).
Active and inactive are the calls of the source. Cut-off read from the data, not from the text of the source: actives have a measured IC50 and inactives only a lower limit.

Target: Envelope glycoprotein gp160 (Human immunodeficiency virus 1, UniProt Q6QLK5)
Assay: inhibitors of HIV fusion peptide binding, primary screen, biochemical, uHTS, fluorescence dequenching (AID 1986)

Sequence of Envelope glycoprotein gp160 (Q6QLK5 whole entry, the tested form may be a part): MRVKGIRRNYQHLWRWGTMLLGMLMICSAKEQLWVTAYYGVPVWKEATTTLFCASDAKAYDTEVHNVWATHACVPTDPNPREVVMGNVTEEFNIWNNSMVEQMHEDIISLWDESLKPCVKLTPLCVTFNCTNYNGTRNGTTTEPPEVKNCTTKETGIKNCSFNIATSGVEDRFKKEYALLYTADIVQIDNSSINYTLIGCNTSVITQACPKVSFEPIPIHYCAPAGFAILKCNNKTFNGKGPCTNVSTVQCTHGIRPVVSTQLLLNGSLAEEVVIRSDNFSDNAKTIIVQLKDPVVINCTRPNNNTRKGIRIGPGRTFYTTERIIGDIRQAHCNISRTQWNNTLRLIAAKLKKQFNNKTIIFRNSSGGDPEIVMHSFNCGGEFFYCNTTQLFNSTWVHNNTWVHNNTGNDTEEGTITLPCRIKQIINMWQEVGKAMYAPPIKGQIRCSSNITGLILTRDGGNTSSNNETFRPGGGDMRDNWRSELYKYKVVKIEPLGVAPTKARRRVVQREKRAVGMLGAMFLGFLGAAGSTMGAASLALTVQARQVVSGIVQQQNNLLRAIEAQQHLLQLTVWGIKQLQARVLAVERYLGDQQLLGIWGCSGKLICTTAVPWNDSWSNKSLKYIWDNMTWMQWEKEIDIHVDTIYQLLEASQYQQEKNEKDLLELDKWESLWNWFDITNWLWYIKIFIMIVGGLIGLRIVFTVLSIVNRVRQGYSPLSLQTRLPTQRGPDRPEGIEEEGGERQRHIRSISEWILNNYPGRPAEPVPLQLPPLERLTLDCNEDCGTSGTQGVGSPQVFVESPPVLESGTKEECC

**Q.** CC(C(=O)Nc1ccc(O)c(C(=O)O)c1)N1C(=O)/C(=C/c2cccs2)SC1=S (stereo not drawn) was tested. Which IC50 did it give?
**A.** 18.8 µM (active)

**Q.** For O=C1NC(=O)/C(=C/c2ccc(-c3cc(C(=O)O)ccc3Cl)o2)S1, which IC50 is on record?
**A.** 25.8 µM (active)

**Q.** For COCCN1C(=O)/C(=C/c2ccc(OCc3ccc(C(=O)O)cc3)c(OC)c2)S/C1=N\c1ccccc1, which IC50 is on record?
**A.** 15.1 µM (active)
